# Biological target: T1, human serum albumin (HSA) (Homo sapiens, UniProt P02768)
# T1 construct: gene ALB; essentially fatty acid free HSA
# Assay: intrinsic fluorescence quenching, double-log plot
# Type: binding
# Conditions: 300 K, phosphate buffer pH 7.4, 15 µM HSA, <2% DMSO
# Excerpt: intrinsic fluorescence quenching, double-log plot on human serum albumin (HSA)
# T1 sequence (P02768 25-609): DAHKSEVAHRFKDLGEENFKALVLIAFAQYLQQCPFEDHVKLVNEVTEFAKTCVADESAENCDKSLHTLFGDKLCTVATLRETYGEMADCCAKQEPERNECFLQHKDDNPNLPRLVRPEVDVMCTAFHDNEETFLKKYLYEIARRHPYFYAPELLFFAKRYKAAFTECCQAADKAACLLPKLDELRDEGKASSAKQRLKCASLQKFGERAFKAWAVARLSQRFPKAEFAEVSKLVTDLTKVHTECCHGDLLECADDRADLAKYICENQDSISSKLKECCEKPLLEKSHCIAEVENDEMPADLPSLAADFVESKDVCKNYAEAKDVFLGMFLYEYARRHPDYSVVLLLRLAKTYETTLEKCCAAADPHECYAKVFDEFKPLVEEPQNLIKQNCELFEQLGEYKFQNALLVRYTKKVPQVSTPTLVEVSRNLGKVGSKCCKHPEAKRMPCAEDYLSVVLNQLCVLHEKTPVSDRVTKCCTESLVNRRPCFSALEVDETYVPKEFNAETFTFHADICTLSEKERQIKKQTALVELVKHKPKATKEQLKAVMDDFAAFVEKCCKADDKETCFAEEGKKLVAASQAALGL
row,Kb [M⁻¹],SMILES
1,32710,"COc1cc(O[C@@H]2O[C@H](CO)[C@@H](O)[C@H](O)[C@H]2O)c(CC=C(C)C)c(O)c1C(=O)/C=C/c1ccc(O)cc1 [compound 4, Xanthohumol 4’-O-β-D-glucopyranoside]"
2,4550,"COc1cc(O[C@@H]2O[C@H](CO)[C@@H](OC)[C@H](O)[C@H]2O)c(CC=C(C)C)c(O)c1C(=O)/C=C/c1ccc(O)cc1 [compound 5, Xanthohumol 4’-O-β-D-(4’’’-O-methyl)glucopyranoside]"
3,4480,"COc1cc(O[C@@H]2O[C@H](CO)[C@@H](O)[C@H](O)[C@H]2O)c(CC=C(C)C)c(O)c1C(=O)CCc1ccc(O)cc1 [compound 6, α,β-Dihydroxanthohumol 4’-O-β-D-glucopyranoside]"
4,6110,"COc1cc(O[C@@H]2O[C@H](CO)[C@@H](OC)[C@H](O)[C@H]2O)c(CC=C(C)C)c(O)c1C(=O)CCc1ccc(O)cc1 [compound 7, α,β-Dihydroxanthohumol 4’-O-β-D-(4’’’-O-methyl)glucopyranoside]"
5,9150,"COc1cc(O[C@@H]2O[C@H](CO)[C@@H](OC)[C@H](O)[C@H]2O)c(CC=C(C)C)c2c1C(=O)/C(=C/c1ccc(O)cc1)O2 [compound 9, (Z)-6,4’-Dihydroxy-4-methoxy-7-prenylaurone 6-O-β-D-(4’’’-O-methyl)glucopyranoside]"

# Second part, the molecule before the results:
row,SMILES,Kb [M⁻¹]
1,"COc1cc(O)c(CC=C(C)C)c(O)c1C(=O)/C=C/c1ccc(O)cc1 [compound 1, 3’-[3”,3”-dimethylallyl]-2’,4’,4-trihydroxy-6’-methoxychalcone]",86240
2,"COc1cc(O)c(CC=C(C)C)c(O)c1C(=O)CCc1ccc(O)cc1 [compound 2, α,β-dihydroxanthohumol]",36350
3,"COc1cc(O)c(CC=C(C)C)c2c1C(=O)/C(=C/c1ccc(O)cc1)O2 [compound 3, (Z)-6,4’-dihydroxy-4-methoxy-7-prenylaurone]",14250
4,"COc1cc(O[C@@H]2O[C@H](CO)[C@@H](O)[C@H](O)[C@H]2O)c(CC=C(C)C)c2c1C(=O)/C(=C/c1ccc(O)cc1)O2 [compound 8, (Z)-6,4’-Dihydroxy-4-methoxy-7-prenylaurone 6-O-β-D-glucopyranoside]",4850

# Source: paper PMC6152009, “The Influence of Glycosylation of Natural and Synthetic Prenylated Flavonoids on Binding to Human Serum Albumin and Inhibition of Cyclooxygenases COX-1 and COX-2” (Molecules : A Journal of Synthetic Chemistry and Natural …, 2017)
